Consider 4 molecules from patent publication US20120070451A1, “METHODS AND COMPOSITIONS FOR MODULATING CARDIAC CONTRACTILITY” (Consiglio Nazionale Delle Ricerche, priority 2009, published 2012).

The test system of one experiment is Cavα1 currents. As to the kind of experiment: Whole-cell patch clamp Ca2+ current (ICa,L) in cotransfected tsA-201 cells with or without serum. The class given is cell-based. The settings on record: cotransfection with Cavα1; 36 h. The protocol:
FIG. 6. Akt phosphorylation of Cavβ2 preserves Cavα1 currents. Ca^2+ currents recorded in cotransfected tsA-201 cells with YFP-Cavα1 and either Cavβ2-WT, Cavβ2-SE, or Cavβ2-SA mutant, cultivated for 36 h in the presence or absence of fetal bovine serum (10%). Currents were recorded 1-2 minutes after the whole-cell configuration was achieved (i.e. after stabilization of the current) and were elicited by a 0 mV depolarization of 200 ms duration applied from a holding potential of −80 mV. Currents are normalized to cell capacitance (Current density, pA/pF). Representative current traces are shown. n>35 at each condition, (*P<0.05 compared to YFP-Cavα1, ANOVA).
FIG. 7. […] (C) Wild-type Cavα1 subunit (alone or cotransfected with Cavβ2SE) and its in-frame ΔPEST mutants (Cavα1-ΔP and Cavα1-ΔH) half-lives were determined in COST cells. After overnight starvation, transfected cells were pulse-chased and analyzed along a time course (*P<0.001 compared to Cavα1, ANOVA; n=3). […] (F) Ca^2+ currents recorded in tsA-201 cells cotransfected with Cavβ2-WT and either Cavα1-WT or Cavα1-ΔH and cultivated for 36 h in the presence or absence of fetal bovine serum (10%). […]
Macroscopic Ice, was recorded at room temperature (˜22° C.) using the whole-cell patch clamp technique in native cells as previously described (Aimond et al., 2005; Maier et al., 2003). […]
(Patch clamp records ionic current or voltage across a cell membrane.)

The subject of another experiment is Cavα1. The experiment can be described thus: Western blot of YFP-Cavα1 in transfected COS-7 cells treated with Akt inhibitor and degradation-system inhibitors. The experiment is classed as cell-based. The protocol: FIG. 3. Akt mediates regulation of Cavα1 protein density at the plasma membrane. (A) RT-PCR analysis of Cavα1 mRNA expression from WT and KO ventricular extracts. GADPH serves as loading control. (B) Western blot analysis of whole lysate, membrane, and microsomal fractions from WT and KO ventricular extracts. (C) YFP-Cavα1 transfected COS-7 cells alone or in combination with Cavβ2-expression vector were serum-starved and treated with Akt inhibitor and 1 μM bafilomycin-A1, 25 μM MG132, or 25 μM calpeptin. 6 h post drug administration, cell lysates were prepared and subjected to Western blot analysis for YFP. GAPDH served as a loading control. (D-E) Cavα1 protein levels in KO cardiomyocytes infected with empty (mock) or active E40K-Akt (AdAkt) expressing adenoviral vector (D) and in whole lysates of WT and E40K-Akt (Tg Akt) hearts (E). Representative experiments are shown (n=4).
However, since the amount of Cavα1 was reduced in both microsomal and membrane fractions from KO extracts compared to WT (FIG. 3B), we hypothesized that the reduced Cavα1 level observed in KO mice was due to enhanced protein degradation in addition to impaired protein translocation to the plasma membrane. To assess the pathway involved in the Akt-dependent Cavα1 protein degradation, three sets of specific cell degradation system inhibitors were examined for their ability to prevent the decrease in Cavα1 protein elicited by Akt inhibition. […] Similar results were obtained by inhibiting calpain, the intracellular, Ca^2+-dependent cysteine protease known to be involved in membrane protein degradation (Belles et al., 1988; Romanin et al., 1991).
Cell transfection was performed in serum-starved medium using LipoFectamine2000 (Invitrogen) according to the manufacturer's instructions. 5 μM Akt-XI inhibitor (Calbiochem), insulin (Sigma), 1 μM bafilomycin-A 1 (Sigma), 25 μM MG132 (Calbiochem), and 25 μM Calpeptin (Calbiochem) were used as described. […]
Proteins expression was evaluated in total lysates or cell fractions by Western blot analysis according to standard procedures. […]

The next experiment relates to Cavα1 C-terminal domain. The experiment can be described thus: GST pull-down in vitro binding assay. The settings on record: for Interaction with Cavα1 C-terminal domain: 35S-methionine-labeled C-Cavα1 (aa 1477-2169). The source says:
FIG. 7. Rapid-protein-degradation PEST sequences determine Cavα1 protein instability. (A) Schematic representation of Cavα1 mapping the α1-interacting domain (AID) and PEST sequences in the I-II and II-III cytosolic loops. Deleted PEST sequences (P, H) are highlighted in red. (B) Western blot and immunofluorescence analyses showing relative levels of WT and PEST deleted mutants of YFP-Cavα1 (n=3). Bar represents 5 μm. (C) Wild-type Cavα1 subunit (alone or cotransfected with Cavβ2SE) and its in-frame ΔPEST mutants (Cavα1-ΔP and Cavα1-ΔH) half-lives were determined in COST cells. After overnight starvation, transfected cells were pulse-chased and analyzed along a time course (*P<0.001 compared to Cavα1, ANOVA; n=3). (D) Western blot and immunofluorescence analyses showing relative levels of WT GFP and N-terminal fusion PEST mutants (n=3). Bar represents 20 μm. (E) The Cavα1 C-terminus interacts with the Akt-phosphorylated-GST-Cavβ2 coiled coil region. Bacterially expressed GST or GST-C-Cavβ2 (Cavβ2: aa 480-655) fusion protein and glutathione sepharose beads were incubated with equal amounts of in vitro translated [^35S] methionine-labeled C-Cavα1 (Cavα1: aa 1477-2169). […] Bound proteins were resolved by SDS-PAGE (4-12%). 10% of the input protein in each binding reaction is shown. Coomassie staining of SDS-PAGE is shown in the bottom panel. (F) Ca^2+ currents recorded in tsA-201 cells cotransfected with Cavβ2-WT and either Cavα1-WT or Cavα1-ΔH and cultivated for 36 h in the presence or absence of fetal bovine serum (10%). Current densities (pA/pF) are normalized to the control condition. n>35 at each condition, (*P<0.05 compared to Cavα1, ANOVA). […]
Affinity-purified GST-fusion proteins were generated using a pGEX system (Amersham) and phosphorylated as described below. […] Bound proteins were eluted in SDS sample buffer, subjected to SDS-PAGE, and detected by autoradiography. […]

Setting [1] is: Cavα1 and Cavβ2 cotransfected cells, 1 μM bafilomycin-A1, 25 μM MG132 or 25 μM calpeptin, 6 h.

Residues, ends and D or L forms follow the SMILES beside them. *: point of attachment. Cbz = O=C(OCc1ccccc1)*

On to “Cavβ2-WT: wild-type Ca2+ beta2 channel accessory subunit”, for which, in the experiment with Cavα1 currents, the “ICa,L in serum-free medium compared to serum-containing medium” value was “significant depressed ICa,L”. Turning to `CC(C)C[C@@H](C=O)NC(=O)[C@H](CC(C)C)NC(=O)[C@H](CC(C)C)NC(=O)OCc1ccccc1` [MG132] (Cbz-Leu-Leu-Leu-aldehyde), in the experiment with Cavα1 (setting [1]), the “Cavα1 protein decrease induced by Akt inhibition” value is “failed to protect Cavα1 from protein degradation”. Regarding “Akt-phosphorylated Cavβ2 C-terminal coiled coil region: bacterially expressed GST-C-Cavβ2 (Cavβ2: aa 480-655) fusion protein phosphorylated by recombinant Akt”, the results for the “Interaction with Cavα1 C-terminal domain” value with Cavα1 C-terminal domain and with Cavα1 C-terminal domain (listed as Akt-phosphorylated GST-C-Cavβ2) were “direct interaction took place” and “Binding occurred”, respectively. Also, the “Interaction with other Cavα1 cytosolic domains” value in the experiment on Cavα1 C-terminal domain (data not shown) is recorded as “No interactions were found”. `CO/C1=C\C(C)=C\[C@@H](C)[C@@H](O)[C@@H](C)C/C(C)=C/C=C/[C@H](OC)[C@@H]([C@@H](C)[C@@H](O)[C@H](C)[C@@]2(O)C[C@@H](O)[C@H](C)[C@@H](C(C)C)O2)OC1=O` [bafilomycin-A1]: the entries for the “Cavα1 protein decrease induced by Akt inhibition” value with Cavα1 (setting [1]) and in the experiment with Cavα1 (absence of Cavβ2 cotransfection) were “prevented the decrease in Cavα1 protein induced by Akt inhibition” and “protection effect was abolished”, respectively.
